# From US8207139B2, “Function of GPR4 in vascular inflammatory response to acidosis and related methods” (priority 2009, dated 2012)
# Entries after “also recorded” stand apart in the source; their conditions may differ.
# How the values were obtained:
# [1] = tested on: acidosis/GPR4-induced HUVEC cell adhesion; experiment: HUVEC-U937 monocyte cell adhesion assay; type: cell-based, human; conditions: HUVEC cells treated with acidic pH, attachment of U937 monocytes as readout
# Description: Cell adhesion assay: To examine the adhesion of HUVEC endothelial cells and to model the interaction between endothelium and immune cells, the HUVEC-U937 monocyte adhesion assay was used as a functional readout. […] In brief, HUVEC endothelial cells were cultured in a 24-well plate to form a confluent monolayer, and treated with EGM-2/HEM media at various pHs for 5 to 15 hours. After the pH treatment, HUVEC cells were washed once with DMEM medium (pH 7.4), and then U937 monocytic cells resuspended in DMEM with 10% fetal bovine serum (FBS) were added to the HUVEC monolayer to allow adhesion for 1 hour at pH 7.4. Non-adherent cells were removed by gently washing several times with DMEM medium.
# Effects on HUVEC cell adhesion: HUVEC cells with GPR4 siRNA or control siRNA were treated with different pHs, and the U937-HUVEC cell adhesion assay was performed.
# [2] = tested on: acidosis/GPR4-induced HUVEC cell adhesion; experiment: HUVEC-U937 monocyte cell adhesion assay; type: cell-based, human; conditions: treatment with cAMP pathway activators, attachment of U937 monocytes as readout
Compound,effect on acidosis/GPR4-induced HUVEC cell adhesion [1],effect on adhesion of HUVEC cells [2]
"C[C@H]1O[C@@H](n2cnc3c(N)ncnc32)C[C@@H]1O [2′,5′-dideoxyadenosine]",reduced; also recorded: abolishes; also recorded: diminishes,
CO[C@@H]1[C@@H]2OP(=O)(O)OC[C@H]2O[C@H]1n1c(Sc2ccc(Cl)cc2)nc2c(N)ncnc21 [8-CPT-2Me-cAMP],,increases
O=S(=O)(NCCNC/C=C/c1ccc(Br)cc1)c1cccc2cnccc12 [H-89],did not affect; also recorded: does not affect,
Nc1ncnc2c1ncn2C1CCCO1 (centres unmarked) [SQ 22536],abolishes; also recorded: reduces,
pertussis toxin,,enhanced; also recorded: increases
